Experimental data taken from patent publication US9017950B2, “Method for enhancing enzyme assays” (Luminescent MD, LLC, priority 2011, dated 2015).

Tests used:
Format in all cases: biochemical
[1] = target: T1, HRP (Armoracia rusticana, UniProt P00433); test: Enzyme assay with OD4MI CL detection to quantify HRP in the presence of surfactant; conditions: for dynamic range of enzyme assay for quantifying HRP compared with absence of surfactant: surfactant at critical micelle concentration
T1 construct: purchased Sigma
T1 sequence (P00433 31-338 limits assumed): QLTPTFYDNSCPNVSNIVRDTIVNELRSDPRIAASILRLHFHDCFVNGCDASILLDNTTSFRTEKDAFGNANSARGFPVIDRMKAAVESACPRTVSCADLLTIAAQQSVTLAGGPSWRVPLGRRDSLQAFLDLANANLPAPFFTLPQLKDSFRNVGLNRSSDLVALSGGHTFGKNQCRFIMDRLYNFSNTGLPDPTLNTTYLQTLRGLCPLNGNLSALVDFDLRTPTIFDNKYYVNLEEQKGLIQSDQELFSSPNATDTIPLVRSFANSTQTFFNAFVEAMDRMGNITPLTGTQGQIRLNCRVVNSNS
Protocol: Various concentrations (0.5, 1.0, and 1.5%) of Triton® X surfactant derivatives (Triton® X-100, Triton® X-114, Triton® X-405, and Triton® X-705) were prepared in Tris-HCl buffer solution (pH 8.5).
Various surfactants (e.g., (2-Hydroxypropyl)-β-cyclodetrin, β-cyclodextrin, Carboxymethyl-β-cyclodextrin, Carbomethyl-β-cyclodextrin sodium salt, γ-cyclodextrin, Sodium dodecyl sulfate, Hexadecyltrimethylammonium bromide, Hexadecyltrimethylammonium chloride) of critical micelle concentration (CMC) were prepared in Tris-HCl buffer solution (pH 8.5).
As a substrate for ODI derivative CL detection, 2.0 μM Amplex® Red reagent in deionized water was prepared.
Various concentrations (0˜0.1 U/ml) of HRP containing 2.0 mM H2O2 was prepared in Tris-HCl buffer solution (pH 8.5).
1,1′-Oxalyldi-4-methyl-imidazole (OD4MI), one of ODI derivatives was formed from the reaction between 5.0 μM TCPO, and 10.0 μM 4-Methylimidazole (4MImH) in Ethyl acetate. 100 mM H2O2 was prepared in Isopropyl alcohol.
• 5. Mix and incubate 0.8 ml of Amplex® Red reagent (or deionized water), 0.1 ml of surfactant, one of various surfactants used in this research, and 0.1 ml of HRP containing H2O2 for 10 minutes in a 1.5 ml-centrifuge tube at room temperature. • 6. Pipette 10 μl of working solution into the assigned test tube (12×75 mm) or strip well. • 7. Insert the test tube into a luminometer or the strip well into a microplate luminometer. • 8. Read CL emitted when OD4MI and H2O2 are added into the test tube or strip well through two dispensers.

[2] = target: T2, AFP detection antibody-HRP conjugate (Armoracia rusticana, UniProt P00433); test: Quantification of AFP using AFP detection antibody-HRP conjugate and OD4MI CL detection in the presence of Triton X-100; conditions: 0.1% Triton X-100, OD4MI CL detection, FIG. 6
T2 construct: AFP detection antibody (conjugated)
T2 sequence (P00433 31-338 limits assumed): T1 sequence (P00433 31-338 limits assumed)
Protocol: (§1) AccuLite® CLIA kit capable of quantifying AFP with luminol CL detection was used to develop new CLEIA method using OD4MI CL detection in the presence of 0.1% Triton® X-100 surfactant. The kit is composed of 96 strip wells coated with monoclonal AFP primary antibody, AFP detection antibody-HRP conjugate, luminol as a substrate, reaction buffer, and washing buffer.
2.0 μM Amplex® Red reagent and 0.2 mM H2O2 in deionized water were prepared in water containing 0.1% Triton® X-100 surfactant.
(§2) OD4MI was formed from the reaction between 5.0 μM TCPO and 10.0 μM 4-Methylimidazole (4MImH) in Ethyl acetate. 100 mM H2O2 was prepared in Isopropyl alcohol.
• 12. Pipette 25 μl of AFP standard or test sample into a strip well. • 13. Add 100 μl of AFP detection antibody-HRP conjugate to the strip well • 14. Swirl the strip wells for 20 seconds. • 15. Incubate for 30 minutes at 37° C. • 16. Discard the contents of each strip wells. • 17. Wash each plate with 300 μl washing buffer. Repeat four additional times. • 18. Add 100 μl working solution containing 2.0 μM Amplex® Red reagent, 0.2 mM H2O2 and 0.1% Triton® X-100 surfactant in the strip well. • 19. […] Read (integration time: 0.5 seconds) emitted CL for 0.5 seconds when OD4MI and H2O2 are added into the test tube or strip well through two dispensers.

[3] = target: T3, PSA detection antibody-HRP conjugate (Armoracia rusticana, UniProt P00433); test: Quantification of PSA using PSA detection antibody-HRP conjugate and OD4MI CL detection (CLEIA) in the presence of catalyst
T3 construct: PSA detection antibody (conjugated)
T3 sequence (P00433 31-338 limits assumed): T1 sequence (P00433 31-338 limits assumed)
Protocol: as §1, with “PSA” for “AFP”, “ODI derivative” for “OD4MI”, “detection.” for “detection in the presence of 0.1% Triton® X-100 surfactant.”
8 different PSA serum samples (0, 0.5, 1, 2, 5, 10, 25, 50 ng/ml), components of AccuLite® CLIA kit, were used as standard samples.
2.0 μM Amplex® Red reagent and 0.2 mM H2O2 in deionized water were prepared as described in Example 1 (A).
0.5 mM 4-Iodophenol was prepared in Tris-HCl buffer solution (pH 8.5).
2.0 mM 4-(1,2,4-triazol-1-yl) phenol was prepared in Tris-HCl buffer solution (pH 8.5).
0.8 ml of aqueous solution containing Amplex® Red reagent (2.0 μM) and H2O2 (0.2 mM) was mixed with 0.2 ml of 4-Iodophenol (or 2.0 mM 4-(1,2,4-triazol-1-yl) phenol).
as §2
• 12. Pipette 25 μl of PSA standard or test sample into a strip well. • 13. Add 100 μl of PSA detection antibody-HRP conjugate to the strip well • 14. Swirl the strip wells for 20 seconds. • 15. Incubate for 20 minutes at 37° C. • 16. Discard the contents of each strip wells. • 17. Wash each plate with 300 μl washing buffer. Repeat four additional times. • 18. Add 100 μl working solution containing 2.0 μM Amplex® Red reagent and 0.2 mM H2O2 to each strip well. • 19. Incubate the strip-well containing Amplex® Red reagent, H2O2, and 4-Iodophenol (or 2.0 mM 4-(1,2,4-triazol-1-yl) phenol) for 5.0 minutes at room temperature (21˜23° C.) in the dark. • 20. Pipette 10 μl of working solution into the assigned test tube (12×75 mm). • 21. Insert the test tube into a luminometer or the strip well into a microplate luminometer. • 22. Read (integration time: 0.5 seconds) emitted CL for 0.5 seconds when OD4MI and H2O2 are added into the test tube or strip well through two dispensers.

Row | Molecule | dynamic range of enzyme assay for quantifying HRP compared with absence of surfactant ([1]; OD4MI CL detection) | also measured
1 | (2-Hydroxypropyl)-β-cyclodetrin | wider than that in the absence of surfactant | –
2 | CCCCCCCCCCCCCCCC[N+](C)(C)C.[Br-] [Hexadecyltrimethylammonium bromide] | wider than that in the absence of surfactant | –
3 | Triton® X-100 | – | dynamic range to quantify HRP compared with other Triton X derivatives ([1]; 1.0% surfactant, FIG. 5): wider than those in other Triton® X surfactant derivatives; effect on the reaction between Amplex Red reagent and H2O2 in the presence of HRP ([1]; OD4MI CL detection, FIG. 3 to 5): acting to interfere; dynamic range of enzyme assay to quantify HRP, upper end ([1]; higher Triton X-100 concentration, OD4MI CL detection, room temperature, FIG. 3): up to 0.1 U/ml; linear dynamic range for quantification of AFP [2]: 0˜1250 ng/ml
4 | Oc1ccc(-n2cncn2)cc1 [4-(1,2,4-triazol-1-yl) phenol] | – | LOD, times lower than in the absence of catalyst [3]: ~10 times
5 | CCCCCCCCCCCCCCCC[N+](C)(C)C.[Cl-] [Hexadecyltrimethylammonium chloride] | wider than that in the absence of surfactant | –
6 | Oc1ccc(I)cc1 [4-Iodophenol] | – | LOD, times lower than in the absence of catalyst [3]: about 20 times; LOD, times lower than in the presence of 4-(1,2,4-triazol-1-yl) phenol [3]: about 2 times
7 | CCCCCCCCCCCCOS(=O)(=O)[O-].[Na+] [Sodium dodecyl sulfate] | wider than that in the absence of surfactant | –
8 | OC[C@H]1O[C@@H]2O[C@H]3[C@H](O)[C@@H](O)[C@@H](O[C@H]4[C@H](O)[C@@H](O)[C@@H](O[C@H]5[C@H](O)[C@@H](O)[C@@H](O[C@H]6[C@H](O)[C@@H](O)[C@@H](O[C@H]7[C@H](O)[C@@H](O)[C@@H](O[C@H]8[C@H](O)[C@@H](O)[C@@H](O[C@H]1[C@H](O)[C@H]2O)O[C@@H]8CO)O[C@@H]7CO)O[C@@H]6CO)O[C@@H]5CO)O[C@@H]4CO)O[C@@H]3CO [β-cyclodextrin] | wider than that in the absence of surfactant | –
9 | Carboxymethyl-β-cyclodextrin | wider than that in the absence of surfactant | –
10 | OC[C@H]1O[C@@H]2O[C@H]3[C@H](O)[C@@H](O)[C@@H](O[C@H]4[C@H](O)[C@@H](O)[C@@H](O[C@H]5[C@H](O)[C@@H](O)[C@@H](O[C@H]6[C@H](O)[C@@H](O)[C@@H](O[C@H]7[C@H](O)[C@@H](O)[C@@H](O[C@H]8[C@H](O)[C@@H](O)[C@@H](O[C@H]9[C@H](O)[C@@H](O)[C@@H](O[C@H]1[C@H](O)[C@H]2O)O[C@@H]9CO)O[C@@H]8CO)O[C@@H]7CO)O[C@@H]6CO)O[C@@H]5CO)O[C@@H]4CO)O[C@@H]3CO [γ-cyclodextrin] | wider than that in the absence of surfactant | –
11 | Carbomethyl-β-cyclodextrin sodium salt | wider than that in the absence of surfactant | –
